Holding throughout (type): cell-based, human
Test [1] has as its system vascular endothelial cells differentiated from normal iPSCs. Briefly: Morphology of vascular endothelial cells differentiated from normal iPSCs after LysoGb3 treatment. As to conditions: treated for 9 days; FIG. 17. On the procedure: Particularly, the vascular endothelial cells differentiated from normal iPSCs were treated with LysoGb3 protein (MATREYA LLC, USA) for 9 days, and then the morphology of the cells was confirmed.

Test [2] has as its system KDR, eNOS and TSP1 genes in vascular endothelial cells differentiated from normal iPSCs. Briefly: RT-PCR of vasculopathy-related genes after LysoGb3 treatment. How it is done: Particularly, the vascular endothelial cells differentiated from normal iPSCs were treated with LysoGb3 protein for 1, 3 or 5 days, and RNA was extracted from the cells using easy-BLUE (Intron). Then, RT-PCR was performed in the conventional manner to confirm the RNA expression levels of KDR, eNOS and TSP1 (Thrombospondin 1) genes related to vasculopathy. As a result, as shown in FIGS. 18a to 18c, the RNA expression levels of KDR, eNOS and TSP1 genes were increased 1 day after the treatment of LysoGb3 protein.

Test [3] concerns TSP1, KDR, eNOS and phospho-AKT in vascular endothelial cells differentiated from normal iPSCs. Briefly: Western blotting of vasculopathy-related proteins after LysoGb3 treatment. Particulars: treated for 3, 6, or 9 days; Western blot, FIG. 19. On the procedure:
(§1) Particularly, the FB-iPSCs prepared in Example 1 were treated with Fabrazyme, a therapeutic agent for Fabry disease, and starvation media in various combinations. Pro-Prep solution (Intron Biotechnology, Korea) was added to each sample and reacted at 4° C., followed by centrifugation at 1300 rpm for 10 minutes to obtain a supernatant. The obtained supernatant was electrophoresed on acrylamide gel and transferred to a nitrocellulose membrane, followed by blocking with 4% skim milk. Then, anti-LC3 antibody (1:1000, Santacruz, USA) was treated thereto and reacted at 4° C. for 24 hours, followed by washing three times with TBS containing tween-20. The protein expression level was confirmed by the conventional Western blotting. The expression level of each protein was corrected using GAPDH as a control.
The changes in the expression levels of vasculopathy-related proteins by Gb3 protein were confirmed using Western blotting. Particularly, the vascular endothelial cells differentiated from normal iPSCs were treated with LysoGb3 protein for 3, 6, or 9 days, and Western blotting was performed in the same manner as described in Experimental Example <3-1>. At this time, anti-TSP1 antibody (1:1000, Santacruz, USA), anti-KDR antibody (1:1000, Cell Signaling Technologies, USA), anti-eNOS antibody (1:1000, Cell Signaling Technologies, USA), anti-AKT antibody (1:1000, Cell Signaling Technologies, USA), and anti-phospho-AKT antibody (1:1000, Cell Signaling Technologies, USA) were used as antibodies.
(A western blot detects proteins with antibodies after separation by electrophoresis.)

Test [4] concerns TSP1 protein in vascular endothelial cells differentiated from normal iPSCs. As to the kind of experiment: Immunostaining of TSP1 protein expression location after LysoGb3 treatment. As to conditions: FIG. 20.
For test [5], the system named is vascular endothelial cells differentiated from FB-iPSCs. As to the kind of experiment: Morphology of vascular endothelial cells differentiated from FB-iPSCs after TGF-β inhibitor treatment. As to conditions: for therapeutic effect on vasculopathy in patients with Fabry disease: conclusion of Experimental Example 9, patient-derived vascular endothelial cells. How it is done: Particularly, the FB-iPSCs prepared in Example 1 were cultured in a feeder-free state for 3 days. Thereafter, the medium was exchanged with RPMI-1640 medium containing 1% B27, to which 50 ng/ml of activin A and 20 ng/ml of BPM4 were added as growth factors, and then the cells were cultured for 2 days to differentiate into mesoderm cells. The medium was exchanged with RPMI-1640 medium containing 0.5% B27, to which 50 ng/ml of VEGFA and 50 ng/ml of bFGF were added as growth factors, and then the cells were cultured for 2 days to differentiate into vascular progenitors. CD34 positive cells capable of differentiating into vascular endothelial cells were isolated from the induced vascular progenitors by performing magnetic activated cell sorting (MACS) using CD34 magnetic beads. The isolated CD34 positive cells were further cultured for 2 days in EGM-2 medium (Lonza, USA) containing 100 ng/ml of VEGF-A and 100 ng/ml of bFGF as growth factors to differentiate into vascular endothelial cells. Particularly, using the control group treated with only Fabrazyme on the vascular endothelial cells prepared in Example 2, the experimental group treated with only SB431542 (Cayman Chemical, USA), and the experimental group treated with Fabrazyme and SB431542, the morphology of the cells was confirmed. Particularly, using the control group treated with only Fabrazyme on the vascular endothelial cells prepared in Example 2, the experimental group treated with Fabrazyme and SB431542, and the experimental group treated with Fabrazyme and losartan (Cayman Chemical, USA), the morphology of the cells was confirmed.

In test [6] the test system is TSP1, KDR and eNOS proteins in vascular endothelial cells differentiated from FB-iPSCs. As to the kind of experiment: Western blotting of vasculopathy-related proteins in vascular endothelial cells differentiated from FB-iPSCs. On the procedure:
as §1
Particularly, the vascular endothelial cells prepared in Example 2 were treated with Fabrazyme, and Western blotting was performed in the same manner as described in Experimental Example <3-1>. At this time, anti-KDR antibody (1:1000, Cell Signaling Technologies, USA), anti-eNOS antibody (1:1000, Cell Signaling Technologies, USA) and anti-TSP1 antibody (1:1000, Santacruz, USA) were used as antibodies.
Particularly, using the control group treated with only Fabrazyme on the vascular endothelial cells prepared in Example 2 and the experimental group treated with Fabrazyme and SB431542, Western blotting was performed in the same manner as described in Experimental Example <3-1>. At this time, anti-TSP1 antibody (1:1000, Santacruz, USA), anti-KDR antibody (1:1000, Cell Signaling Technologies, USA) and anti-eNOS antibody (1:1000, Cell Signaling Technologies, USA) were used as antibodies.

Test [7] concerns vascular endothelial cells differentiated from FB-iPSCs. As to the kind of experiment: Tube formation on matrigel (vasculogenesis) of vascular endothelial cells differentiated from FB-iPSCs. Particulars: SB431542 only or Fabrazyme and SB431542 vs Fabrazyme only; FIGS. 23a-23e. How it is done:
On the other hand, 70 μl of matrigel (corning) stock solution was put in a 96-well plate and hardened at 37° C., and then 1×10^4 vascular endothelial cells prepared in Example 2 and EGM2 medium were added thereto to confirm the tube formation. Particularly, using the control group treated with only Fabrazyme on the vascular endothelial cells prepared in Example 2, the experimental group treated with only SB431542, and the experimental group treated with Fabrazyme and SB431542, The tube formation was confirmed in the same manner as described in Experimental Example <4-2>.

The test system of test [8] is LC3 protein in FB-iPSCs. Briefly: Western blotting of LC3 protein in FB-iPSCs. As to conditions: Fabrazyme and starvation media in various combinations, vs normal cells, FIG. 4. On the procedure:
as §1

For test [9], the system named is LC3, Beclin 1 and ubiquitin proteins in vascular endothelial cells of patients with Fabry disease. As to the kind of experiment: Western blotting of LC3, Beclin 1 and ubiquitin in vascular endothelial cells of patients with Fabry disease. How it is done: as §1
Particularly, vascular endothelial cells were isolated from the dermal tissue obtained from the patients with Fabry disease of Example 1, to which Fabrazyme was treated. Then, the expression levels of LC3, Beclin 1 and ubiquitin proteins were confirmed by performing Western blotting in the same manner as described in Experimental Example <3-1>. At this time, anti-LC3 antibody (1:1000, Santacruz, USA), anti-Beclin 1 antibody (1:500, Santacruz, USA), and anti-ubiquitin antibody (1:1000, Santacruz, USA) were used as antibodies.

Test [10] relates to SMAD2 protein phosphorylation in vascular endothelial cells differentiated from FB-iPSCs. Briefly: Western blotting of SMAD2 phosphorylation (TGF-β activation) in vascular endothelial cells differentiated from FB-iPSCs. As to conditions: Fabrazyme treatment; vs normal control group; FIG. 14. On the procedure: as §1
Particularly, the vascular endothelial cells prepared in Example 2 were treated with Fabrazyme, and Western blotting was performed in the same manner as described in Experimental Example <3-1>. At this time, anti-SMAD2 antibody (1:1000, Cell Signaling Technologies, USA) and anti-phospho-SMAD2 antibody (1:1000, Cell Signaling Technologies, USA) were used as antibodies.

Test [11] deals with TSP1 protein in vascular endothelial cells differentiated from normal iPSCs. Briefly: Western blotting after activin A treatment of vascular endothelial cells differentiated from normal iPSCs. As to conditions: activin A treatment of normal iPSC-derived vascular endothelial cells; FIG. 15. On the procedure: as §1
Particularly, the vascular endothelial cells differentiated from normal iPSCs were treated with activin A to activate TGF-β, and Western blotting was performed in the same manner as described in Experimental Example <3-1>. […]

[12] abbreviates: given with Fabrazyme vs Fabrazyme only, Fab #1, Fab #2 (FIGS. 24a, 24b).
Where [13] appears, read: Fabrazyme and SB431542 vs Fabrazyme only, Western blot, FIG. 22.
Where [14] appears, read: vascular endothelial cells of Fabry patients, Fabrazyme treatment, vs normal cells, FIG. 5.

Take `CCCCCCCCCCCCC/C=C/[C@@H](O)[C@@H](N)CO[C@@H]1O[C@H](CO)[C@@H](O[C@@H]2O[C@H](CO)[C@H](O[C@H]3O[C@H](CO)[C@H](O)[C@H](O)[C@H]3O)[C@H](O)[C@H]2O)[C@H](O)[C@H]1O` [LysoGb3 protein]: in [1], the “morphology of the normal vascular endothelial cells” value is on record as “changed to a widening form”. For the same molecule, in test [2] (1 day after the treatment), the “RNA expression level of KDR gene” value was “increased”, the “RNA expression level of TSP1 gene” value was “increased” and the “RNA expression level of eNOS gene” value is “increased”. Also, in [2] (after 3 and 5 days), the “RNA expression level of KDR gene” value is recorded as “lower than those of the normal control cells” and the “RNA expression level of eNOS gene” value is on record as “lower than those of the normal control cells”. Besides, in [3], the “expression level of KDR protein” value is “decreased”, the “expression level of TSP1 protein” value is on record as “increased”, the “expression level of eNOS protein” value is “decreased” and the “phosphorylation of AKT protein” value was “decreased”. Besides, the “expression location (distribution) of TSP1 protein” value in test [4] is on record as “distributed throughout the cells”.

For the molecule `NC(=O)c1ccc(-c2nc(-c3ccc4c(c3)OCO4)c(-c3ccccn3)[nH]2)cc1` [SB431542], in test [5] (SB431542 only or Fabrazyme and SB431542 vs Fabrazyme only, Fab #1-#4 (FIGS. 21a-21e)), the “abnormal morphology of the vascular endothelial cells differentiated from FB-iPSCs” value is “restored to normal”. Besides, in test [5], the “therapeutic effect on vasculopathy in patients with Fabry disease” value is “showed a therapeutic effect”. For the same molecule, the “abnormal morphology of the vascular endothelial cells differentiated from FB-iPSCs” value in test [5] (setting [12]) is “restored to normal”. Also, in [6] (setting [13]), the “expression level of KDR protein” value was “increased”, the “expression level of TSP1 protein” value is reported as “decreased” and the “expression level of eNOS protein” value is recorded as “increased”. The “tube formation on matrigel” value in test [7] was “formed a tube shape”.

Take `CCCCc1nc(Cl)c(CO)n1Cc1ccc(-c2ccccc2-c2nn[nH]n2)cc1` [losartan]: the “therapeutic effect on vasculopathy in patients with Fabry disease” value in test [5] was “could not be confirmed”. The “abnormal morphology of the vascular endothelial cells differentiated from FB-iPSCs” value in test [5] (setting [12]) is listed as “had no effect”.

B1: Fabrazyme: recombinant alpha-galactosidase enzyme, a therapeutic agent for Fabry disease (protein, UniProt P06280 32-429, looked up)
Alpha-galactosidase A: LDNGLARTPTMGWLHWERFMCNLDCQEEPDSCISEKLFMEMAELMVSEGWKDAGYEYLCIDDCWMAPQRDSEGRLQADPQRFPHGIRQLANYVHSKGLKLGIYADVGNKTCAGFPGSFGYYDIDAQTFADWGVDLLKFDGCYCDSLENLADGYKHMSLALNRTGRSIVYSCEWPLYMWPFQKPNYTEIRQYCNHWRNFADIDDSWKSIKSILDWTSFNQERIVDVAGPGGWNDPDMLVIGNFGLSWNQQVTQMALWAIMAAPLFMSNDLRHISPQAKALLQDKDVIAINQDPLGKQGYQLRQGDNFEVWERPLSGLAWAVAMINRQEIGGPRSYTIAVASLGKGVACNPACFITQLLPVKRKLGFYEWTSRLRSHINPTGTVLLQLENTMQMSLKDLL
As to B1, in test [6] (Fabrazyme treatment, vs normal control group, FIG. 13), the “increased expression level of TSP1 protein by Fabry disease” value is “not inhibited”. Also, the “expression level of LC3 protein” value in [8] is reported as “higher in FB-iPSCs than in normal cells regardless of the Fabrazyme treatment”. For the same molecule, the “characteristics of the lysosomal storage disease” value in test [9] (after the treatment of Fabrazyme, conclusion of Experimental Example 3) is on record as “not recovered”. Moreover, in [9] (setting [14]), the “expression level of Beclin 1 protein” value was “higher in vascular endothelial cells of patients with Fabry disease than in normal cells regardless of the Fabrazyme treatment”, the “expression level of LC3 protein” value is “higher in vascular endothelial cells of patients with Fabry disease than in normal cells regardless of the Fabrazyme treatment” and the “expression level of ubiquitin protein” value is reported as “higher in vascular endothelial cells of patients with Fabry disease than in normal cells regardless of the Fabrazyme treatment”. In addition, in [10], the “phosphorylation level of SMAD2 protein” value is “increased in the vascular endothelial cells derived from patients with Fabry disease compared to the normal control group regardless of the Fabrazyme treatment”.

B2: activin A: growth factor used to activate TGF-β (protein, UniProt P08476 311-426, looked up)
Inhibin beta A chain: GLECDGKVNICCKKQFFVSFKDIGWNDWIIAPSGYHANYCEGECPSHIAGTSGSSLSFHSTVINHYRMRGHSPFANLKSCCVPTKLRPMSMLYYDDGQNIIKKDIQNMIVEECGCS
modifications: Inhibin beta A chain
In the case of B2, the “expression of TSP1 protein” value in [11] is recorded as “increased”.
